Measured values published in US12263177B2, “Biologically active ganoderma lucidum compounds and synthesis of anticancer derivatives; ergosterol peroxide probes for cellular localization” (priority 2019, dated 2025).
Read-outs that look alike come from different tables or passages of the source.

Columns and labels:
[1] = system: MDA-MB-231 breast cancer cells; experiment: De novo in-cell protein synthesis (click assay); format: cell-based, human; conditions: 2 h treatment; EP 20 μM
Method: First, 2.5×10^4 cells/well were seeded in 8-well μ-slides (Ibidi®, #80826) and incubated at 37° C. for 12 h. The cells were treated with vehicle, compounds Ganoderic acid A or EP, or cycloheximide (positive control) for 2 h to determine protein synthesis as nascent proteins generated using Biovision's EZClick™ Global Protein Synthesis Assay Kit, (#K715-100, Milpitas, CA). The assay includes a robust chemical method based on an alkyne containing o-propargyl-puromycin (OP-puro) probe, which stops translation by forming covalent conjugates with nascent polypeptide chains. Truncated polypeptides are rapidly turned over by the proteasome and can be detected based on the subsequent click reaction with a fluorescent azide. The reaction was conducted according to the manufacturer's protocol. Cells were imaged at 20× with a Nikon C2 scanning confocal microscope, and the whole image montage was quantified by using Gen5 Software and Lionheart™ FX Automated Microscope (BioTek, Winooski, VT).

MDA-MB-231 GFP tumors = experiment: In vivo tumor progression, MDA-MB-231-GFP mammary fat pad xenograft; conditions: 100 mg/kg BW i.p. three times per week, female SCID mice
Method: Female severe combined immunodeficient (SCID) mice (21 d of age) were purchased from Charles River Laboratories International Inc. (Wilmington, MA) and housed under specific pathogen free conditions. The mice received autoclaved AIN 76-A phytoestrogen-free diet (Tek Global, Harlan Teklad, Madison, WI) and water ad libitum. This protocol was approved by the Universidad Central del Caribe IACUC. Cell inoculations were performed as previously described by the inventors (PMID: 20517637, PMID: 23468988, PMID: 26958085, PMID: 30542507, PMID: 31658643). […] After tumor establishment the animals were randomly divided into control and experimental groups. Treatment started on week 5 post-inoculations when tumors were ˜100 mm^3. […]
The mice were imaged following tumor establishment, and once per week thereafter. Tumor progression was monitored by fluorescence image analysis taken on an UVP iBox Explorer (Analytik Jena, Upland, CA) and quantified as in PMID: 20517637. Relative tumor growth was calculated as the fluorescence intensity of each tumor on day of imaging. Quantification for tumor progression was calculated using the fluorescence intensity of each treated tumor relative to the fluorescence intensity of the same tumor on d 01 of treatment administration (week 5) using ImageJ software (National Institutes of Health, Bethesda, MD). […]

[2] = format: physicochemical; conditions: 168 hr at RT
SUM-149 cells [3] = experiment: Annexin V apoptosis detection; format: cell-based, human; conditions: 20 μM, 48 h
Method: Cells commonly fail to bypass the G1 phase of the cycle due to mutations or DNA damage, which can result in apoptosis. […] In addition, caspase 3/7 activity assays were performed as an alternate method of apoptosis detection.
SUM-149 cells (5×10^5) were seeded and treated either with vehicle (0.1% DMSO) or with 20 μM of EP or with puromycin (200 ng/mL) as positive control for 48 h. After treatment floating cells were collected, and all cells were harvested and counted. Treated cells were analyzed for cell death by using the FITC Annexin-V/7AAD Apoptosis detection kit (product #640922, Biolegend, San Diego, CA) according to the manufacturer's instructions. Briefly, cells were resuspended in Annexin Binding Buffer, stained with Annexin V-FITC and/or 7-AAD, and incubated for 30 min at 4° C. Data were acquired on a BD FACS Canto II cytometer (BD Biosciences, San José, Calif.) and analyzed by using FlowJo software (V10, FlowJo LLC, Ashland, OR).

[4] = system: AKT isoforms, BCL-XL, Cyclin D1, c-Myc, PARP in SUM-149 cells; experiment: Immunoblots of signaling proteins; format: cell-based, human
Text: Studies that focus on drivers of cancer cell survival and invasion signaling show the important role of the AKT isoforms in breast cancer. AKT1 and AKT3 are associated with breast cancer invasion, and PTEN-deficient tumors depend on AKT2 for maintenance and survival. […] Regulation of AKT isoform expression by EP is extremely similar to what the inventors reported with whole mushroom GLE in the same breast cancer cell lines.
Because EP induced apoptosis, its effects on the expression on anti-apoptosis proteins BCL-2 and BCL-XL, which block the release of cytochrome C from the mitochondria were investigated. […] The apoptosis inducing effects of EP in SUM-149 cells were investigated by monitoring PARP cleavage.
Breast cancer cells treated with vehicle or EP were lysed, and equal total protein was resolved via SDS-PAGE and immunoblotted with indicated antibodies (Cell Signaling Technologies, Abcam, Sigma) as described previously.

SUM-149 cells [5] = experiment: Invasion assay (Transwell, Matrigel); format: cell-based, human; conditions: 72 h
Method: (§1) Previously, the anti-migratory activities of whole mushroom GLE in SUM-149 cells was reported. To investigate EP's effects on cell migration, Boyden chamber assays; while to investigate invasion, Transwell chambers were used. […] Furthermore, an additional decrease (43%) was seen when cells were treated with a non-lethal dose of 15 μM of EP (P<0.01) (FIG. 8B).
(§2) Cell migration and invasion were measured by using Corning® FluoroBlok™ Cell Culture Inserts and performing BD BioCoat Matrigel invasion assays (BD Biosciences, San José, Calif.) as described in [12, 14].

SUM-149 cells [6] = experiment: Cell viability assay (CellTiter-Glo or PI staining); format: cell-based, human; conditions: for EC50: Homo sapiens, read-out: EC50, SUM-149 cell viability
Method: (§3) Different concentrations of GLE-extracted bioactive chemical components were tested for 72-h treatment periods.
Either 1×10^3-4.8×10^3 or 4×10^2-1.2×10^3 cells were seeded to each well of 96- or 384-well white polystyrene flat-bottomed plates (3610 or 8804BC, Corning) in 100 μL or 30 μL media per well, respectively. The concentrations used were experimentally determined to ensure logarithmic growth during the duration of the experiment and prevent adverse effects on cell growth by DMSO exposure. The plates were incubated at 37° C. in 5% CO2 for 24 h before treatment. Stock solutions of test compounds (10 mM in DMSO) in nine 3-fold serial dilutions were dispensed via pintool (Biomek). The final concentration of DMSO was 0.3% (v/v) in each well. The plates were incubated for 72 h at 37° C. in 5% CO2 and then quenched with CellTiter-Glo® reagent (50 μL/well in 96-well plate, 30 μL/well in 384-well plate) at RT. The positive controls included staurosporine (10 μM), gambogic acid (10 μM), and a toxic quinoline generated in-house. Plates were then incubated at RT for 20 min and centrifuged at 1000 rpm for 1 min. The cytotoxicity assay was performed by using the CellTiterGlo Luminescent Cell Viability Assay kit (G7570, Promega, Madison, WI) according to the manufacturer's instructions. Luminescence was recorded in an Envision plate reader (Perkin Elmer).
(§4) For the CTG assay, 3 or 4 replicate assays were conducted for each experimental condition, and a minimum of 3 independent experiments were conducted for cellular assays. The mean luminescence of each experimental treatment group was normalized as a percentage of the mean intensity of untreated controls. EC50 values (μM) were calculated by Pipeline Pilot Software (Accelrys, Enterprise Platform, CA, USA). EC50 values (μM) from the viability assay were calculated from dose response curve-fitting via non-linear regression by using GraphPad Prism (Version 7.0 San Diego, CA).

SUM-149 cells [7] = experiment: Migration assay (Boyden chamber); format: cell-based, human; conditions: 10 μM, 72 h
Method: as §1, §2

MDA-MB-231 TNBC cells = experiment: Cell viability assay (CellTiter-Glo or PI staining); format: cell-based; conditions: Homo sapiens, MDA-MB-231, read-out: EC50, MDA-MB-231 cell viability; FIG. 4E
Method: as §3
Either 1×10^3-4.8×10^3 or 4×10^2-1.2×10^3 cells were seeded to each well of 96- or 384-well white polystyrene flat-bottomed plates (3610 or 8804BC, Corning) in 100 μL or 30 μL media per well, respectively. The concentrations used were experimentally determined to ensure logarithmic growth during the duration of the experiment and prevent adverse effects on cell growth by DMSO exposure. The plates were incubated at 37° C. in 5% CO2 for 24 h before treatment. Stock solutions of test compounds (10 mM in DMSO) in nine 3-fold serial dilutions were dispensed via pintool (Biomek). The final concentration of DMSO was 0.3% (v/v) in each well. […] Luminescence was recorded in an Envision plate reader (Perkin Elmer).
as §4

With CC(C)[C@@H](C)/C=C/[C@@H](C)[C@H]1CC[C@@H]2[C@]1(C)CC[C@H]1[C@]23C=C[C@]2(C[C@@H](O)CC[C@]12C)OO3 [EP, ergosterol peroxide] the “de novo protein synthesis inhibition” value [1] was “do not inhibit de novo protein synthesis”, the “tumor growth rate (GFP fluorescence integrated density relative to week 5)” value (MDA-MB-231 GFP tumors) was “significantly decreases” and the precipitation on standing [2] was “precipitation”. For the same compound, the “decrease of live cells (Annexin−, 7AAD−)” value (SUM-149 cells [3]) was about 15%, the “percentage of cells in early apoptosis (Annexin+, 7AAD−)” value (SUM-149 cells [3]) was “significantly increased” and the AKT2 levels ([4]; SUM-149) was “decreases”. The AKT3 levels ([4]; SUM-149) was “not affecting”, the “expression of BCL-XL” value ([4]; SUM-149) was “significantly reduces” and the “expression of Cyclin D1” value ([4]; SUM-149) was “significantly reduces”. For the same compound, the “expression of c-Myc” value ([4]; SUM-149) was “significantly reduces”, the “expression of p-AKT1 (Ser 473)” value ([4]; SUM-149) was “significantly decreases” and the p-AKT2 ([4]; SUM-149) was “without affecting”. For the same compound, the “total AKT1 levels” value ([4]; SUM-149) was “decreases”, the PARP cleavage ([4]; SUM-149, 24 h, EP 30 μM) was “induces PARP cleavage” and the “total PARP levels” value ([4]; SUM-149, 24 h, EP 30 μM) was “significantly reduces”. For the same compound, the invading cells (SUM-149 cells [5]; 10 μM) was “significant reduction”, the decrease in invasion (SUM-149 cells [5]; 15 μM) was 43% and the “concentration at which SUM-149 cell viability is significantly reduced” value (SUM-149 cells [6]; 72 h) was 8 µM. The EC50 (SUM-149 cells [6]; SUM149, 24 h) was 34 µM, the EC50 (SUM-149 cells [6]; SUM149, 72 h) was 20 µM and the cancer cell migration (SUM-149 cells [7]) was “decreases cancer cell migration”. The EC50 (MDA-MB-231 TNBC cells) was 19 µM.
